Like-named read-outs stand apart in the source and are kept apart here.
Target: T1, Taf3-PHD P881E–W894F (Mus musculus, UniProt Q5HZG4, P881E/W894F)
T1 construct: Mus musculus Taf3-PHD domain (residues 857–924); GST (N, cleaved yes); made in house; host or cells: E. coli BL21(DE3), M9 minimal medium (13C/15N)
T1 sequence (Q5HZG4 857-924 P881E/W894F): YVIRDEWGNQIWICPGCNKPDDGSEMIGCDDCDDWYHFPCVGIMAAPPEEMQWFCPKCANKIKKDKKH
Assay: NMR titration line shape analysis (TITAN), double mutant Taf3-PHD
Assay type: binding
Description: The ^13C- and ^15N-labelled Taf3-PHD NMR samples were purified as described above, with minor differences. A single colony of freshly transformed BL21(DE3) E. coli was grown in a synthetic M9 minimal medium (6.0 g/l Na2HPO4·2H2O, 3.0 g/l KH2PO4, 0.5 g/l NaCl, 25 mg/l MgSO4, 290 μg/l CaCl2, 1 μg/l FeSO4·7H2O, 270 μg/l ZnCl2, and 5 mg/l thiamine) containing 2.0 g/l ^13C-glucose as the only carbon source and 0.5 g/l ^15NH4Cl as the sole nitrogen source. Protein expression, lysis, and loading to Glutathione Sepharose™ column were performed as described above. The GST-tag was removed through on-column thrombin digestion by loading excess thrombin (SERVA) in wash buffer followed by overnight digestion at 4°C. The cleaved PHD moiety with a […] N-terminal extension (Gly–Ser–His–Met–Ala–Met–Ala) remaining from the thrombin cleavage site was collected from the flow-through and further purified in a Mono Q™ 10/100 GL as before and subsequently loaded to a Superdex-75 HiLoad 16/600 gel filtration column in NMR buffer (20 mM KPi, pH 7.0, 150 mM KCl, 10 μM ZnCl2) (Supplementary Fig. S1).
All data were recorded at 298 K on a Bruker Avance III HD 900 MHz spectrometer equipped with a cryoprobe, unless noted otherwise. Sample for assignment verification contained 0.3 mM ^13C- and ^15N-labelled PHD finger of Taf3 (residues 857–924) in NMR buffer (20 mM KPi, pH 7.0, 150 mM KCl, 10 μM ZnCl2, 0.01% NaN3, 10% D2O) in a 5-mm NMR tube. Samples for peptide interaction studies contained 0.19 mM ^13C- and ^15N-labelled PHD in NMR buffer in 3-mm NMR tubes. Lyophilized peptides were dissolved in NMR buffer including 1 mM sodium 3-(trimethylsilyl)tetradeuteriopropanionate (TSP) into 20 mM stock solutions. Upon dilution to 1 mM, all peptide solutions were at pH 7.0 in NMR buffer. Peptide concentrations were determined by comparing the integral of the Thr methyl signal (from T3, T6, and T11, total nine protons) to that of TSP using a quantitative 1D experiment (recycle delay 60 s) recorded at a Bruker Avance III 600 MHz spectrometer. Saturated complexes with H3K4me1/H3K4me2/H3K4me3 peptides with and without H3Q5ser were made by adding peptide to a 0.7 mM final concentration (3.6 equiv.). […] Additional samples were prepared using 30%, 50%, 80%, and 160% equiv. of peptide. All spectra were recorded and processed using Bruker Topspin and analysed using NMR-FAM Sparky and Poky.
For the H3K4me2 complexes, the resonance of G879 was excluded due to overlap and that of K875 was included. Spectra were processed using NMRPipe using exponential line broadening of 10/15 Hz in the direct/indirect dimension of the free induction decay before Fourier transform. Data were fit against a 1:1 binding model that also optimizes the ligand concentration to compensate for concentration errors. […]

koff (NMR line shape fit (TITAN), P881E–W894F mutant, average ± standard error from bootstrap, read-out: koff)	koff (NMR line shape fit (TITAN), P881E–W894F mutant, read-out: koff 95% confidence limits)	SMILES	koff	koff (read-out: koff 95% confidence limits)
–	–	C[C@H](N)C(=O)N[C@@H](CCCNC(=N)N)C(=O)N[C@H](C(=O)N[C@@H](CCCC[N+](C)(C)C)C(=O)N[C@@H](CCC(=O)NCCc1c[nH]c2ccc(O)cc12)C(=O)N[C@H](C(=O)N[C@@H](C)C(=O)N[C@@H](CCCNC(=N)N)C(=O)N[C@@H](CCCCN)C(=O)N[C@@H](CO)C(=O)N[C@H](C(=O)NCC(N)=O)[C@@H](C)O)[C@@H](C)O)[C@@H](C)O [H3K4me3Q5ser]	24.2 ± 0.9 s⁻¹	18 to 33 s⁻¹
29.6 ± 0.9 s⁻¹	22 to 40 s⁻¹	C[C@H](N)C(=O)N[C@@H](CCCNC(=N)N)C(=O)N[C@H](C(=O)N[C@@H](CCCC[N+](C)(C)C)C(=O)N[C@@H](CCC(N)=O)C(=O)N[C@H](C(=O)N[C@@H](C)C(=O)N[C@@H](CCCNC(=N)N)C(=O)N[C@@H](CCCCN)C(=O)N[C@@H](CO)C(=O)N[C@H](C(=O)NCC(N)=O)[C@@H](C)O)[C@@H](C)O)[C@@H](C)O [H3K4me3]	–	–
